From ChEMBL document CHEMBL5465560, “Selectivity Literature for EUbOPEN Chemogenomic Library” (2024) come the findings set out here.

Assay [1] has as its target Serine/threonine-protein kinase 38 (Homo sapiens) (UniProt Q15208). The assay is described as follows: Selectivity interaction (KinomeScan (DiscoverX)) EUB0000595a STK38. The settings on record: at 10 µM.
The target in assay [2] is T1, STE20-related kinase adapter protein alpha (Homo sapiens) (UniProt Q7RTN6).
T1 sequence (whole entry): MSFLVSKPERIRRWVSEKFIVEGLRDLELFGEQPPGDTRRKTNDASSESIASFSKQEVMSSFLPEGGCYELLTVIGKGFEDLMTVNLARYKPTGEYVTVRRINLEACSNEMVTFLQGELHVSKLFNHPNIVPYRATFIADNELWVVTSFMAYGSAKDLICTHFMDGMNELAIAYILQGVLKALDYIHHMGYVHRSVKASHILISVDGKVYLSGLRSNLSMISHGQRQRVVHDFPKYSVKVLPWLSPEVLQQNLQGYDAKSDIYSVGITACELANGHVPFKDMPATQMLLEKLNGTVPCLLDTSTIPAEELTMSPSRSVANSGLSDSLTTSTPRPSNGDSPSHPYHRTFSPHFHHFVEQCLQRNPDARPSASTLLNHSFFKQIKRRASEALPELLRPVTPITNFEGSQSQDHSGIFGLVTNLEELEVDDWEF
The assay is described as follows: Selectivity interaction (ActivX KiNativ screen (ex vivo kinase selectivity in human PBMCs)) EUB0001619a STRADA. It counts as cell-based. Conditions: PBMC, at 1 µM.

The subject of assay [3] is Proto-oncogene tyrosine-protein kinase receptor Ret (Homo sapiens), P07949 [V804L]. The assay is described as follows: (§1) Selectivity interaction (KinomeScan (DiscoverX)) EUB0000607a RET. The settings on record: at 10 µM.
For assay [4], the system named is Proto-oncogene tyrosine-protein kinase receptor Ret (Homo sapiens), P07949 [V804M]. Described as §1. The settings on record: at 10 µM.
The target of assay [5] is Proto-oncogene tyrosine-protein kinase receptor Ret (Homo sapiens, UniProt P07949). The assay is described as §1. The settings on record: at 10 µM.
Assay [6] concerns Proto-oncogene tyrosine-protein kinase receptor Ret (Homo sapiens), P07949 [M918T]. The assay is described as §1. The settings on record: at 10 µM.
The target of assay [7] is Protein kinase C theta type (Homo sapiens, UniProt Q04759). Put plainly: Selectivity interaction (Kinase screening (Upstate/Millipore)) EUB0000604a PRKCQ.
For assay [8], the target named is Histone-lysine N-methyltransferase 2C (Homo sapiens) (UniProt Q8NEZ4). The assay is described as follows: Selectivity interaction (Methyltransferase screen (radiometric assays, panel of 8 PRMTs, 21 protein lysine methyltransferases, 3 DNA methyltransferases, and one RNA methyltransferase)) EUB0000272b MLL3.
Sequence of Histone-lysine N-methyltransferase 2C (Homo sapiens) (Q8NEZ4 whole entry): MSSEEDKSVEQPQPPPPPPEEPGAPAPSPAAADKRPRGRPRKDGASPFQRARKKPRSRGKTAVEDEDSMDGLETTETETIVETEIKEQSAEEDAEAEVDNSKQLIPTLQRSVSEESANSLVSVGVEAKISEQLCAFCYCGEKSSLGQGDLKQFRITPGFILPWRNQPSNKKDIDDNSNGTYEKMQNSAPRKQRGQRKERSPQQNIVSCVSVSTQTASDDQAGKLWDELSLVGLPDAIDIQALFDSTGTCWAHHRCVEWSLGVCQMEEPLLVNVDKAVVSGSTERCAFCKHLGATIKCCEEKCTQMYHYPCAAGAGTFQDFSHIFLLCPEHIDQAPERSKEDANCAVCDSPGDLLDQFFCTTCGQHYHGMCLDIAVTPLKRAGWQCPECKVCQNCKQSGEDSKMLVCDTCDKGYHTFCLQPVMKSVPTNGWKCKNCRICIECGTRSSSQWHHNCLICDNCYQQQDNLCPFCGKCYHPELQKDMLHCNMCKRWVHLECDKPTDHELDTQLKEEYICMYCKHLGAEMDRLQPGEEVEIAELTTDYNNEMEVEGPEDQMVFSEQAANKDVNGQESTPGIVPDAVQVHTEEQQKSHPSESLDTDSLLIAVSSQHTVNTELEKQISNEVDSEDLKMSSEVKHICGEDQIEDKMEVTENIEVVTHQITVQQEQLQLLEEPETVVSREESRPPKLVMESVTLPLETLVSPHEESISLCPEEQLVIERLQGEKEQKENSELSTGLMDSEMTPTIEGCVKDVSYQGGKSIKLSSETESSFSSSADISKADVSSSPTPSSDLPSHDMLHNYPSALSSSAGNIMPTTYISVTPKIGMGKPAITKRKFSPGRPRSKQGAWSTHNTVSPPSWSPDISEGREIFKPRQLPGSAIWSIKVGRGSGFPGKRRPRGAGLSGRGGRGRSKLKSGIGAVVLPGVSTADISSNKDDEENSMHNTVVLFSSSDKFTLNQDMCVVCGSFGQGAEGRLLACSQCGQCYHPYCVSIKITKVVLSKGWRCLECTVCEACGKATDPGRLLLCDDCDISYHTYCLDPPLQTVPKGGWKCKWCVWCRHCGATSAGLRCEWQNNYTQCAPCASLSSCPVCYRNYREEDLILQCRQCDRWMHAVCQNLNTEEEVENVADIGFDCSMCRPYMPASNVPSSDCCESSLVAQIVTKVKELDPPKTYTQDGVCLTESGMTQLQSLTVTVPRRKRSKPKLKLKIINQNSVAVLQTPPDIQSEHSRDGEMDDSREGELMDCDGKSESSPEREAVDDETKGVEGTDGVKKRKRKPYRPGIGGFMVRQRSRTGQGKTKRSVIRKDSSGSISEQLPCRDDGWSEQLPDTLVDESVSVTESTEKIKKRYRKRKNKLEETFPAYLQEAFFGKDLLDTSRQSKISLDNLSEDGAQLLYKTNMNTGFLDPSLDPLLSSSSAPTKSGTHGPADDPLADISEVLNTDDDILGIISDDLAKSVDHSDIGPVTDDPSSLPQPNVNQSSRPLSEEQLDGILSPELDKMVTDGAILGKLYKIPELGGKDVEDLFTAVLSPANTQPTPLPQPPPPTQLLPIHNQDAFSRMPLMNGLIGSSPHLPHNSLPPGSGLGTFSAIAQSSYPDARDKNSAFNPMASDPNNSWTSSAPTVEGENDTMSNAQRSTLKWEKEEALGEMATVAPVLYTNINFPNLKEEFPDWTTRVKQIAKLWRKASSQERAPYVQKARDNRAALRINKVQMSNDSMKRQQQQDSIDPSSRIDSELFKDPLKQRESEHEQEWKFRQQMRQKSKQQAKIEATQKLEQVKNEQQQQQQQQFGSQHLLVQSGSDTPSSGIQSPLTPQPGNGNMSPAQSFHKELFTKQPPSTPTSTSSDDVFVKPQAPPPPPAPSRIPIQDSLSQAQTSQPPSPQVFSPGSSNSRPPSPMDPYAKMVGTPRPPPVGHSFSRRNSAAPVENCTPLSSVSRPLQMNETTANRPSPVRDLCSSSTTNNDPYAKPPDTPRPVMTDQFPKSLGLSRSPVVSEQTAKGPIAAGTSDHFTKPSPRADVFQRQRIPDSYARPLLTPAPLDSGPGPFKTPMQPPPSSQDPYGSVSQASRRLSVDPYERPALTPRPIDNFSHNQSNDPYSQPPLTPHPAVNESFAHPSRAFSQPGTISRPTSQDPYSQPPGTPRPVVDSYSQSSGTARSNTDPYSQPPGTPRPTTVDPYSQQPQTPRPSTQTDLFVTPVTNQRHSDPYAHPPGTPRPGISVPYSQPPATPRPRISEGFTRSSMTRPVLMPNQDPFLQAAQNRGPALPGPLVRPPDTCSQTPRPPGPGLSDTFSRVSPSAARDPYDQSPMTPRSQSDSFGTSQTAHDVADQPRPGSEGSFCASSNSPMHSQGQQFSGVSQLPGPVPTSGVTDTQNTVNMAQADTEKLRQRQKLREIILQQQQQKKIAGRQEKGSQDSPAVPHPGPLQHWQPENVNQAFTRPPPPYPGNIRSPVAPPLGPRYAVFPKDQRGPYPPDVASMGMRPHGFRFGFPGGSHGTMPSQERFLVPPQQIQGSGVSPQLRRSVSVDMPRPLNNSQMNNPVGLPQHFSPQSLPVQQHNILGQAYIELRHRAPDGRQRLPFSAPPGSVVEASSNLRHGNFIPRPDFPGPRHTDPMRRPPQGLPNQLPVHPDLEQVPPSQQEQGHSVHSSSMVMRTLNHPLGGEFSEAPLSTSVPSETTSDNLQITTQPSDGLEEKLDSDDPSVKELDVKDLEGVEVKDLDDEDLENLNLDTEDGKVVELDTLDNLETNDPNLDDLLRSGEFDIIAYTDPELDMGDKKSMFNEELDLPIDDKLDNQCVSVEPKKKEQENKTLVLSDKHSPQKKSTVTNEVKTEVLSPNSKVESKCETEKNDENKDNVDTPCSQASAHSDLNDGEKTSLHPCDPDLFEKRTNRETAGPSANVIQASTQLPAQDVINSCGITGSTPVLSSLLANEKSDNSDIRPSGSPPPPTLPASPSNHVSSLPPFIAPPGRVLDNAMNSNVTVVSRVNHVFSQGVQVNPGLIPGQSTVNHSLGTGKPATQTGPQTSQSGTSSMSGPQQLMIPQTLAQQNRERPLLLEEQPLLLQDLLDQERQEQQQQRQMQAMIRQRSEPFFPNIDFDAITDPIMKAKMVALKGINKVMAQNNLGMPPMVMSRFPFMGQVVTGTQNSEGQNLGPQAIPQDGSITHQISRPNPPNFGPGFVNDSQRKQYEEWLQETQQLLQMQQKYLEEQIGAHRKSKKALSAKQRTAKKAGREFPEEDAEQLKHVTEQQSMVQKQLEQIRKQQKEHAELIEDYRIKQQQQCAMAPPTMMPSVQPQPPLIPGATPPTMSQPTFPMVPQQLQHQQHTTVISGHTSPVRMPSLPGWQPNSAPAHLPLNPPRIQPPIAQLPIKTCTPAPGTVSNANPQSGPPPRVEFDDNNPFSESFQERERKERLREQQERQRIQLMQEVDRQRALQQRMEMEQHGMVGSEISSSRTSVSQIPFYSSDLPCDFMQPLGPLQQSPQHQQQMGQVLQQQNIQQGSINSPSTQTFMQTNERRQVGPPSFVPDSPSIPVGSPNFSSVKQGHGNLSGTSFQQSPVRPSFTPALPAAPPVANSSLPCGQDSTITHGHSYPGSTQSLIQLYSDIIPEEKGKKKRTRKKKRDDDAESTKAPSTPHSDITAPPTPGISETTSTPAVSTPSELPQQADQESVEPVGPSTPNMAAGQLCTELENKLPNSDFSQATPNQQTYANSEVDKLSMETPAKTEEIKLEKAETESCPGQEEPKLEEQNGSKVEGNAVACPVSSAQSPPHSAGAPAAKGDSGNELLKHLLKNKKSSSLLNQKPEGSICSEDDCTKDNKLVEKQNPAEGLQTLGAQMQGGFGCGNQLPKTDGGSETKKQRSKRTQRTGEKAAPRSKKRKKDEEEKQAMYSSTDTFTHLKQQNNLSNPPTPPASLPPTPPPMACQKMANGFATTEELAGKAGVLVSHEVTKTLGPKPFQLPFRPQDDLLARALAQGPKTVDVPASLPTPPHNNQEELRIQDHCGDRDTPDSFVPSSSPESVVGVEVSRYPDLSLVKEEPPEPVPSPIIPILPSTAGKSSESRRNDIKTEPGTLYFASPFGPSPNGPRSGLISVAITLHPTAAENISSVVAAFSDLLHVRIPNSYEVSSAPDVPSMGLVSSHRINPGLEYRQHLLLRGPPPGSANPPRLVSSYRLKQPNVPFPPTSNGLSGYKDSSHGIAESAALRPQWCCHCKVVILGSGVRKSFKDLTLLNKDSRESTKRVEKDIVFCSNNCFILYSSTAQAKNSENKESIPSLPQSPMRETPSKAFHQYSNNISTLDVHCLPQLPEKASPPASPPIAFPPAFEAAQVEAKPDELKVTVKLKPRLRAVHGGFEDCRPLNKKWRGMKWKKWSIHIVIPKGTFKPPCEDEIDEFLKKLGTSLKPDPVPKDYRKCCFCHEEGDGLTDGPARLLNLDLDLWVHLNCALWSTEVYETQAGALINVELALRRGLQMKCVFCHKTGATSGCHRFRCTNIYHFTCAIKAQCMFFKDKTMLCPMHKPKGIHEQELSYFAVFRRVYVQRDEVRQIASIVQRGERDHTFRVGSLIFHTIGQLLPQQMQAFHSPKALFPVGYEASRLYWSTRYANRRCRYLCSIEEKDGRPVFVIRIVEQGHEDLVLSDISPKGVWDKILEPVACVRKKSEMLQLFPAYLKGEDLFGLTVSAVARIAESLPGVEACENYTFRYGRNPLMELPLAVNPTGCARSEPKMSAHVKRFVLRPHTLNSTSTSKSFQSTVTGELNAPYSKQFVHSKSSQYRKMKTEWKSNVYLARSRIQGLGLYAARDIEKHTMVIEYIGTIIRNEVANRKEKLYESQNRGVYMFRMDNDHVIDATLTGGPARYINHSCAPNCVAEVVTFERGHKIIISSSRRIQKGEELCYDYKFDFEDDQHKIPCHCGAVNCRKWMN
In assay [9] the target is T2, Serine/threonine-protein kinase ICK (Homo sapiens) (UniProt Q9UPZ9).
T2 sequence (whole entry): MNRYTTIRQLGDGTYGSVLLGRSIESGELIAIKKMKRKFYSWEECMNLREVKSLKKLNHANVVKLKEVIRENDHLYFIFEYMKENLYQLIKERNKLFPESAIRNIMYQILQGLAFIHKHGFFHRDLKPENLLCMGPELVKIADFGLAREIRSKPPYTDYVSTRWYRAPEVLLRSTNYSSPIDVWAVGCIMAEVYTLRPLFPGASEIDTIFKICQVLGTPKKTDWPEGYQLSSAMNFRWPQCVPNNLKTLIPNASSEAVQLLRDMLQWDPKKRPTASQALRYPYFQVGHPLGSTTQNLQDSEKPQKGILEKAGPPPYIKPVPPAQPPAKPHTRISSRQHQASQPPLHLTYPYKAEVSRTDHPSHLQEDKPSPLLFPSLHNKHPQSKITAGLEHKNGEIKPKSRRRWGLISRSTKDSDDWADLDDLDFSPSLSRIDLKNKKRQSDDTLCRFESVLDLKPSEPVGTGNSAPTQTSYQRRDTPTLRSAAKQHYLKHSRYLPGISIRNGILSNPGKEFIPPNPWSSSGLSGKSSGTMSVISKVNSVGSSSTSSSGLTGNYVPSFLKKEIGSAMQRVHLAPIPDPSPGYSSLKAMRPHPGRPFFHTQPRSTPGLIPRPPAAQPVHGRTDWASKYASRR
Put plainly: Selectivity interaction (KinomeScan (DiscoverX)) EUB0001079a ICK. The settings on record: at 1 µM.

In assay [10] the target is T3, Serine/threonine-protein kinase TNNI3K (Homo sapiens) (UniProt Q59H18).
T3 sequence (whole entry): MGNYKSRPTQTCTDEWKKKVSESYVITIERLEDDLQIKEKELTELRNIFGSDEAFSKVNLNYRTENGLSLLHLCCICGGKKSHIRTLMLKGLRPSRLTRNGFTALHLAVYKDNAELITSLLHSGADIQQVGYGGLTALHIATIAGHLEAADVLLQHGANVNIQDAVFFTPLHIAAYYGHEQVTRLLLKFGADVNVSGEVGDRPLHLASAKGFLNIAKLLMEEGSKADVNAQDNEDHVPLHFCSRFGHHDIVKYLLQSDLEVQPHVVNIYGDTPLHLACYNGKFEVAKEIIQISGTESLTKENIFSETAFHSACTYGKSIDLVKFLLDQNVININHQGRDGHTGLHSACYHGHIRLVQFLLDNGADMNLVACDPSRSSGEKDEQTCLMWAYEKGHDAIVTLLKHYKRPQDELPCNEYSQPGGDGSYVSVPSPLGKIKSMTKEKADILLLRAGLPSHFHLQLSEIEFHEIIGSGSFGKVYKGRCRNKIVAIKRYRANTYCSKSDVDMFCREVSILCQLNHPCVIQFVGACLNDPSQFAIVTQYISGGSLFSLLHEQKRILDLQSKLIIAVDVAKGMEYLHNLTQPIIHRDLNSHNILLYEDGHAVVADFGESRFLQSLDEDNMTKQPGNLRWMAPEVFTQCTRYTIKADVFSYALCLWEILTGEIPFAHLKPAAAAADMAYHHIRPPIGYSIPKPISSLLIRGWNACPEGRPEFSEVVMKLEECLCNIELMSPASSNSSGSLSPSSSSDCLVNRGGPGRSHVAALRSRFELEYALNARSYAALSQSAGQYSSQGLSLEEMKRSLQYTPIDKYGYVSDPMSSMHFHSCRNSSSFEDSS
Put plainly: Selectivity interaction (KinomeScan (DiscoverX)) EUB0000229b TNNI3K. Conditions: at 10 µM.

In [1], `COCC(=O)NC/C=C/c1ccc2ncnc(Nc3ccc(Oc4ccc(C)nc4)c(C)c3)c2c1` [CP-724714] came in with a % of control of 73%.

`N#Cc1cccc(-c2c[nH]c3ncnc(N4CCOCC4)c23)c1` showed a % of inhibition in assay [2] of 1%.

For the compound `CNC(=O)Nc1ccc(-c2nc(N3CC4CCC(C3)O4)c3cnn(C4CCC5(CC4)OCCO5)c3n2)cc1`, the % of control in assay [3] turned out to be 85%; in [4] it was 100%; in assay [5], 91%; in [6] it was 73%.

`Cc1cnc(Nc2ccc(F)cc2Cl)nc1-c1c[nH]c(C(=O)N[C@H](CO)c2cccc(Cl)c2)c1`: the % of inhibition in [7] turned out to be 17%.

In the case of `Cc1cc(C)cc([C@H]2c3cc(C)ccc3NC(=O)CN2C(=O)c2ccc(Br)s2)c1`, the values for the % of activity in [8] (at 1 µM) and in assay [8] (at 10 µM) were 101% and 92%, respectively.

The compound `Nc1cnc(N2CCc3cc(S(=O)(=O)Nc4c(F)cc(Cl)cc4F)cc(N4CCCC4=O)c32)nc1` [TP-020n] showed a % of control in assay [9] of 80%.

With `COc1cc(N(C)c2ccnc3ccc(C(F)(F)F)cc23)cc(OC)c1OC`, the % binding in assay [10] was 90%.
